Here are results for five molecules from patent US20260001928A1 (CORTERIA PHARMACEUTICALS, priority 2022, published 2026).

The target of one experiment is T1, human CRF2a receptor (Homo sapiens, UniProt Q13324).
T1 construct: expressed in transfected cells; host or cells: TeloHEAC cells
T1 sequence (Q13324 1-411): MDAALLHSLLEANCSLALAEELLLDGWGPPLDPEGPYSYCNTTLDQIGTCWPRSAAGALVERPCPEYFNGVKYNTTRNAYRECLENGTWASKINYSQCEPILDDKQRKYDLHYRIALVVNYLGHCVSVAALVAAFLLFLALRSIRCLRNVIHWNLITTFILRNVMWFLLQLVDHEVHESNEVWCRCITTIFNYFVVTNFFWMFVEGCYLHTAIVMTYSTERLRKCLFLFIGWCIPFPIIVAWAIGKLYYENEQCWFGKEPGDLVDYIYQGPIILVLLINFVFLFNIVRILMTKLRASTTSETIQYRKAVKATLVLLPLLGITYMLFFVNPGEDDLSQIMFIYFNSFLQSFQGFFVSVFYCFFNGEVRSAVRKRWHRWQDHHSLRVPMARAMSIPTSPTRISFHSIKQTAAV
The experiment is described as follows: Activity at human CRF2a receptor, cAMP functional assay in TeloHEAC cells. The class given is cell-based. The following applies: TeloHEAC cells stably expressing human CRF2a receptor, relative to urocortin 2 (100 nM = 100%). Put shortly: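 cAMP accumulation was measured by HTRF 665/620 nm ratio after 30 min at 37° C compound exposure (16 twofold dilutions) of CRF2a-expressing TeloHEAC cells, 10000/well, in HEPES-buffered HBSS plus IBMX. Activity was normalised to urocortin 2 at 100 nM (100%), and EC50 was the concentration giving half-maximal activation.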

Another experiment has as its target T2, CFR1R receptor (Homo sapiens, UniProt P34998).
T2 construct: host or cells: CHO-K1 (clone 2)
T2 sequence (P34998 24-415): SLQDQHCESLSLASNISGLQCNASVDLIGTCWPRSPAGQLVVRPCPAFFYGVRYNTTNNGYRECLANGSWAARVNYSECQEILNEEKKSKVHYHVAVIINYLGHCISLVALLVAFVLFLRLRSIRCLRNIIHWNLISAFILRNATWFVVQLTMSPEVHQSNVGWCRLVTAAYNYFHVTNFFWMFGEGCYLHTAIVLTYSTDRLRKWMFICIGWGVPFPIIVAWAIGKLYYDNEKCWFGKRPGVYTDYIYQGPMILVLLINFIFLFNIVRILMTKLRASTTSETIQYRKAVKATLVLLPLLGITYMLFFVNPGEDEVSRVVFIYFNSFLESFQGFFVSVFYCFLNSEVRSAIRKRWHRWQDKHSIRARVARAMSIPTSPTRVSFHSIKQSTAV
Briefly: Activity at anti-target CFR1R receptor, cAMP assay in CRF1R-overexpression CHO-K1 cells. The class given is cell-based. The following applies: 100% = Sauvagine at 100 nM; for EC50: cAMP. Put shortly:
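Uses frozen stocks of CHO-K1 clone 2 cells overexpressing human CRF1R, plated at 4000 cells/well final, with cAMP measured by the same protocol as the TeloHAEC line. Full-activation control: 100 nM Sauvagine.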

*1 amine or outer side, *2 acyl side, *3 side chain or, on linkers, in order; H or OH if unused. Where a SMILES comes first, the peptide text is derived from it. Side-chain parts run from the residue outwards. [ ]: non-standard residue; d: D form. The star is where a group is joined. C18 diacid = O=C(O)CCCCCCCCCCCCCCCCC(=O)*; γGlu = O=C(O)[C@H](CCC(=O)[*:2])N[*:1]; NMeI = CC[C@H](C)[C@H](NC)C(=O)O; αMeL = CC(C)C[C@](C)(N)C(=O)O; Pentanoyl = CCCCC(=O)*; AEEA = NCCOCCOCC(=O)O; Aib = CC(C)(N)C(=O)O

At human CRF2a receptor, `CC[C@H](C)[C@H](NC)C(=O)N[C@H](C(=O)N[C@@H](CC(C)C)C(=O)N[C@@H](CO)C(=O)N[C@@H](CC(C)C)C(=O)N[C@@H](CC(=O)O)C(=O)N[C@@H](C(=O)N1CCC[C@H]1C(=O)N[C@H](C(=O)N[C@@H](CCCCN)C(=O)N[C@@](C)(CC(C)C)C(=O)N[C@@H](CCCCNC(=O)COCCOCCNC(=O)COCCOCCNC(=O)CC[C@H](NC(=O)CCCCCCCCCCCCCCCCC(=O)O)C(=O)O)C(=O)N[C@@H](CCCCN)C(=O)N[C@H](C(=O)N[C@@H](CC(C)C)C(=O)N[C@@H](CC(C)C)C(=O)N[C@@H](CCC(=O)O)C(=O)N[C@@H](CCC(N)=O)C(=O)N[C@@H](CCC(=O)O)C(=O)N[C@@H](CCCCN)C(=O)N[C@@H](CCC(N)=O)C(=O)N[C@@H](CCCCN)C(=O)N[C@@H](CCCCN)C(=O)N[C@@H](CCC(N)=O)C(=O)N[C@@H](CCCNC(=N)N)C(=O)N[C@@H](CCC(=O)O)C(=O)N[C@@H](CCC(N)=O)C(=O)N[C@@H](C)C(=O)N[C@@H](CCC(=O)O)C(=O)N[C@H](C(=O)N[C@@H](CC(N)=O)C(=O)NC(C)(C)C(=O)N[C@@H](CCC(N)=O)C(=O)N[C@H](C(=O)N[C@@H](CC(C)C)C(=O)N[C@@H](C)C(=O)N[C@@H](CCC(N)=O)C(=O)N[C@H](C(N)=O)C(C)C)[C@@H](C)CC)[C@@H](C)O)[C@@H](C)CC)[C@@H](C)CC)C(C)C)C(C)C` [compound 119] (H-[NMeI]VLSLD[dV]PIK[αMeL]K([AEEA-AEEA-γGlu-C18 diacid])KILLEQEKQKKQREQAETN[Aib]QILAQV-NH2) displayed an EC50 of 1.62 nM. Besides, at CFR1R receptor, the “Emax (% I)” value is listed as 5 % I and the EC50 was greater than 250 nM.
The like results for `CCCCC(=O)N[C@H](C(=O)N[C@@H](CC(C)C)C(=O)N[C@@H](CO)C(=O)N[C@@H](CC(C)C)C(=O)N[C@@H](CC(=O)O)C(=O)N[C@@H](C(=O)N1CCC[C@H]1C(=O)N[C@H](C(=O)N[C@@H](CCCCN)C(=O)N[C@@H](CC(C)C)C(=O)N[C@@H](CCCCNC(=O)COCCOCCNC(=O)COCCOCCNC(=O)CC[C@H](NC(=O)CCCCCCCCCCCCCCCCC(=O)O)C(=O)O)C(=O)N[C@@H](CCCCN)C(=O)N[C@H](C(=O)N[C@@H](CC(C)C)C(=O)N[C@@H](CC(C)C)C(=O)N[C@@H](CCC(=O)O)C(=O)N[C@@H](CCC(N)=O)C(=O)N[C@@H](CCC(=O)O)C(=O)N[C@@H](CCCCN)C(=O)N[C@@H](CCC(N)=O)C(=O)N[C@@H](CCCCN)C(=O)N[C@@H](CCCCN)C(=O)N[C@@H](CCC(N)=O)C(=O)N[C@@H](CCCNC(=N)N)C(=O)N[C@@H](CCC(=O)O)C(=O)N[C@@H](CCC(N)=O)C(=O)N[C@@H](C)C(=O)N[C@@H](CCC(=O)O)C(=O)N[C@H](C(=O)N[C@@H](CC(N)=O)C(=O)NC(C)(C)C(=O)N[C@@H](CCC(N)=O)C(=O)N[C@H](C(=O)N[C@@H](CC(C)C)C(=O)N[C@@H](C)C(=O)N[C@@H](CCC(N)=O)C(=O)N[C@H](C(N)=O)C(C)C)[C@@H](C)CC)[C@@H](C)O)[C@@H](C)CC)[C@@H](C)CC)C(C)C)C(C)C` [compound 120] (Pentanoyl-VLSLD[dV]PIKLK([AEEA-AEEA-γGlu-C18 diacid])KILLEQEKQKKQREQAETN[Aib]QILAQV-NH2) were, in that order, 1.33 nM, 3 % I and greater than 250 nM.
`CCCCC(=O)N[C@H](C(=O)N[C@@H](CC(C)C)C(=O)N[C@@H](CO)C(=O)N[C@@H](CC(C)C)C(=O)N[C@@H](CC(=O)O)C(=O)N[C@@H](C(=O)N1CCC[C@H]1C(=O)N[C@H](C(=O)N[C@@H](CCCCN)C(=O)N[C@@H](CC(C)C)C(=O)N[C@@H](CCCCNC(=O)COCCOCCNC(=O)COCCOCCNC(=O)CC[C@H](NC(=O)CCCCCCCCCCCCCCCCC(=O)O)C(=O)O)C(=O)N[C@@H](CCCCN)C(=O)N[C@H](C(=O)N[C@@H](CC(C)C)C(=O)N[C@@H](CC(C)C)C(=O)N[C@@H](CCC(=O)O)C(=O)N[C@@H](CCC(N)=O)C(=O)N[C@@H](CCC(=O)O)C(=O)N[C@@H](CCCCN)C(=O)N[C@@H](CCC(N)=O)C(=O)N[C@@H](CCCCN)C(=O)N[C@@H](CCCCN)C(=O)N[C@@H](CCC(N)=O)C(=O)N[C@@H](CCCNC(=N)N)C(=O)N[C@@H](CCC(=O)O)C(=O)N[C@@H](CCC(N)=O)C(=O)N[C@@H](C)C(=O)N[C@@H](CCC(=O)O)C(=O)N[C@H](C(=O)N[C@@H](CC(N)=O)C(=O)N[C@@H](C)C(=O)N[C@@H](CCC(N)=O)C(=O)N[C@H](C(=O)N[C@@H](CC(C)C)C(=O)N[C@@H](C)C(=O)N[C@@H](CCC(N)=O)C(=O)N[C@H](C(N)=O)C(C)C)[C@@H](C)CC)[C@@H](C)O)[C@@H](C)CC)[C@@H](C)CC)C(C)C)C(C)C` [compound 122] (Pentanoyl-VLSLD[dV]PIKLK([AEEA-AEEA-γGlu-C18 diacid])KILLEQEKQKKQREQAETNAQILAQV-NH2): the EC50 at human CRF2a receptor stood at 0.67 nM. Besides, on CFR1R receptor, the “Emax (% I)” value is 5 % I and the EC50 is greater than 250 nM.
Regarding `CCCCC(=O)N[C@H](C(=O)N[C@@H](CC(C)C)C(=O)N[C@@H](CO)C(=O)N[C@@H](CC(C)C)C(=O)N[C@@H](CC(=O)O)C(=O)N[C@@H](C(=O)N1CCC[C@H]1C(=O)N[C@H](C(=O)N[C@@H](CCCCN)C(=O)N[C@@](C)(CC(C)C)C(=O)N[C@@H](CCCCNC(=O)COCCOCCNC(=O)COCCOCCNC(=O)CC[C@H](NC(=O)CCCCCCCCCCCCCCCCC(=O)O)C(=O)O)C(=O)N[C@@H](CCCCN)C(=O)N[C@H](C(=O)N[C@@H](CC(C)C)C(=O)N[C@@H](CC(C)C)C(=O)N[C@@H](CCC(=O)O)C(=O)N[C@@H](CCC(N)=O)C(=O)N[C@@H](CCC(=O)O)C(=O)N[C@@H](CCCCN)C(=O)N[C@@H](CCC(N)=O)C(=O)N[C@@H](CCCCN)C(=O)N[C@@H](CCCCN)C(=O)N[C@@H](CCC(N)=O)C(=O)N[C@@H](CCCNC(=N)N)C(=O)N[C@@H](CCC(=O)O)C(=O)N[C@@H](CCC(N)=O)C(=O)N[C@@H](C)C(=O)N[C@@H](CCC(=O)O)C(=O)N[C@H](C(=O)N[C@@H](CC(N)=O)C(=O)NC(C)(C)C(=O)N[C@@H](CCC(N)=O)C(=O)N[C@H](C(=O)N[C@@H](CC(C)C)C(=O)N[C@@H](C)C(=O)N[C@@H](CCC(N)=O)C(=O)N[C@H](C(N)=O)C(C)C)[C@@H](C)CC)[C@@H](C)O)[C@@H](C)CC)[C@@H](C)CC)C(C)C)C(C)C` [compound 123] (Pentanoyl-VLSLD[dV]PIK[αMeL]K([AEEA-AEEA-γGlu-C18 diacid])KILLEQEKQKKQREQAETN[Aib]QILAQV-NH2), the EC50 on human CRF2a receptor was determined as 0.7 nM. In addition, at CFR1R receptor, the “Emax (% I)” value was 14 % I and the EC50 was greater than 250 nM.
Take `CCCCC(=O)N[C@H](C(=O)N[C@@H](CC(C)C)C(=O)N[C@@H](CO)C(=O)N[C@@H](CC(C)C)C(=O)N[C@@H](CC(=O)O)C(=O)N[C@@H](C(=O)N1CCC[C@H]1C(=O)N[C@H](C(=O)N[C@@H](CCCCN)C(=O)N[C@@](C)(CC(C)C)C(=O)N[C@@H](CCCCNC(=O)COCCOCCNC(=O)COCCOCCNC(=O)CC[C@H](NC(=O)CCCCCCCCCCCCCCCCC(=O)O)C(=O)O)C(=O)N[C@@H](CCCCN)C(=O)N[C@H](C(=O)N[C@@H](CC(C)C)C(=O)N[C@@H](CC(C)C)C(=O)N[C@@H](CCC(=O)O)C(=O)N[C@@H](CCC(N)=O)C(=O)N[C@@H](CCC(=O)O)C(=O)N[C@@H](CCCCN)C(=O)N[C@@H](CCC(N)=O)C(=O)N[C@@H](CCCCN)C(=O)N[C@@H](CCCCN)C(=O)N[C@@H](CCC(N)=O)C(=O)N[C@@H](CCCNC(=N)N)C(=O)N[C@@H](CCC(=O)O)C(=O)N[C@@H](CCC(N)=O)C(=O)N[C@@H](C)C(=O)N[C@@H](CCC(=O)O)C(=O)N[C@H](C(=O)N[C@@H](CC(N)=O)C(=O)N[C@H](C(=O)N[C@@H](CCC(N)=O)C(=O)N[C@H](C(=O)N[C@@H](CC(C)C)C(=O)N[C@@H](C)C(=O)N[C@@H](CCC(N)=O)C(=O)N[C@H](C(N)=O)C(C)C)[C@@H](C)CC)C(C)C)[C@@H](C)O)[C@@H](C)CC)[C@@H](C)CC)C(C)C)C(C)C` [compound 124] (Pentanoyl-VLSLD[dV]PIK[αMeL]K([AEEA-AEEA-γGlu-C18 diacid])KILLEQEKQKKQREQAETNVQILAQV-NH2): a half-maximal response at human CRF2a receptor (EC50) required 0.38 nM. For the same molecule, at CFR1R receptor, the “Emax (% I)” value is 14 % I and the EC50 was greater than 250 nM.
